# Results reported in ChEMBL document CHEMBL5523717, “Pyrrole-containing hybrids as potential anticancer agents: An insight into current developments and structure-activity relationships” (Eur J Med Chem, 2024).
# Columns and labels:
# [1] = target: T1, Mushroom tyrosinase (Agaricus bisporus, UniProt O42713+Q00024+C7FF04+C7FF05); assay: Inhibition of mushroom Tyrosinase; type: protein assay
# [2] = target: Tyrosinase (Homo sapiens, UniProt P14679); assay: Inhibition of human tyrosinase
# [3] = system: HUVEC; assay: Antiproliferative activity against VEGF-stimulated HUVEC assessed as inhibition of cell growth incubated for 3 days by MTT assay; type: functional, cell-based; settings: Homo sapiens, 72 h
# [4] = system: A549; assay: Cytotoxicity against human A549 cells assessed as reduction in cell growth incubated for 24 hrs by MTT assay; type: functional, cell-based; settings: A549, 24 h
# [5] = system: MCF7; assay: Cytotoxicity against human MCF7 cells assessed as reduction in cell growth incubated for 24 hrs by MTT assay; type: functional, cell-based; settings: MCF7, 24 h
# [6] = system: MCF-12A; assay: Cytotoxicity against human MCF-12A cells assessed as reduction in cell viability incubated for 24 hrs by MTT assay; type: functional, cell-based
# [7] = system: HCT-15; assay: Growth inhibition of human HCT-15 cells incubated for 72 hrs by SRB assay; type: functional
# [8] = Cytotoxicity against human HFL1 cells assessed as cell growth inhibition incubated for 24 hrs by MTT assay; type: toxicity, cell-based
# [9] = target: T2, Hepatocyte growth factor receptor (Homo sapiens, UniProt P08581); assay: Inhibition of c-Met (unknown origin) by mobility shift assay
# [10] = system: HepG2; assay: Cytotoxicity against human HepG2 cells assessed as reduction in cell growth incubated for 72 hrs by MTT assay; type: functional, cell-based; settings: HepG2, 72 h
# [11] = system: A549; assay: Cytotoxicity against human A549 cells assessed as reduction in cell growth incubated for 72 hrs by MTT assay; type: functional, cell-based; settings: A549, 72 h
# [12] = system: MCF7; assay: Cytotoxicity against human MCF7 cells assessed as reduction in cell growth incubated for 72 hrs by MTT assay; type: functional, cell-based; settings: MCF7, 72 h
# [13] = target: Kinesin-like protein KIF11 (Homo sapiens, UniProt P52732); assay: Inhibition of KSP/Eg5 (unknown origin)
# [14] = target: DNA topoisomerase 1 (Homo sapiens, UniProt P11387); assay: Inhibition of DNA topoisomerase I (unknown origin)
# [15] = system: A549; assay: Antiproliferative activity against human A549 cells transfected with sh-empty vector assessed as reduction in cell growth incubated for 48 hrs by MTT assay; type: functional, cell-based; settings: A549, 48 h
# [16] = system: A549; assay: Antiproliferative activity against human A549 cells transfected with sh-EZH2 vector assessed as reduction in cell growth incubated for 48 hrs by MTT assay; type: functional, cell-based; settings: A549, 48 h
# [17] = system: K562; assay: Antiproliferative activity against human K562 cells assessed as reduction in cell growth incubated for 48 hrs by MTT assay; type: functional, cell-based; settings: K562, 48 h
# [18] = system: A549; assay: Anticancer activity against human A549 cells assessed as inhibition of cell growth; type: functional, cell-based
# [19] = system: U-251; assay: Anticancer activity against human U-251 cells assessed as reduction in cell growth; type: functional, cell-based
# [20] = target: Lysine-specific histone demethylase 1A (Homo sapiens, UniProt O60341); assay: Inhibition of LSD1 (unknown origin)
# [21] = target: Vascular endothelial growth factor receptor 2 (Homo sapiens, UniProt P35968); assay: Inhibition of VEGFR-2 (unknown origin) by ELISA analysis
# [22] = Cytotoxicity against mouse NIH3T3 cells assessed as reduction in cell viability incubated for 24 hrs by MTT assay; type: toxicity, cell-based
# [23] = system: T47D; assay: Cytotoxicity against human T47D cells assessed as reduction in cell viability by MTT assay; type: functional, cell-based
# [24] = system: A-431; assay: Cytotoxicity against human A-431 cells assessed as reduction in cell growth by MTT assay; type: functional, cell-based
# [25] = system: A2780; assay: Cytotoxicity against human A2780 cells assessed as reduction in cell growth by MTT assay; type: functional, cell-based
# [26] = system: DU-145; assay: Cytotoxicity against human DU-145 cells assessed as reduction in cell growth by MTT assay; type: functional, cell-based
# [27] = system: HT-29; assay: Cytotoxicity against human HT-29 cells assessed as reduction in cell growth by MTT assay; type: functional, cell-based
# [28] = system: MCF7; assay: Cytotoxicity against human MCF7 cells assessed as reduction in cell growth by MTT assay; type: functional, cell-based
# [29] = target: Poly [ADP-ribose] polymerase 2 (Homo sapiens, UniProt Q9UGN5); assay: Inhibition of PARP-2 (unknown origin)
# [30] = system: MDA-MB-436; assay: Cytotoxicity against human MDA-MB-436 cells assessed as reduction in cell viability incubated for 96 hrs by MTT assay; type: functional
# [31] = target: Poly [ADP-ribose] polymerase 1 (Homo sapiens, UniProt P09874); assay: Inhibition of PARP-1 (unknown origin)
# [32] = system: MCF7; assay: Cytotoxicity against human MCF7 cells assessed as reduction in cell viability incubated for 96 hrs by MTT assay; type: functional
# [33] = system: MDA-MB-231; assay: Cytotoxicity against human MDA-MB-231 cells assessed as reduction in cell viability by MTT assay; type: functional, cell-based
# [34] = system: CNE-2; assay: Anticancer activity against human CNE-2 cells assessed as reduction in cell growth; type: functional, cell-based
# [35] = system: SUNE1; assay: Anticancer activity against human SUNE1 cells assessed as reduction in cell growth; type: toxicity, cell-based
# [36] = system: K562; assay: Antiproliferative activity against human K562 cells assessed as reduction in cell growth incubated for 48 hrs by WST-8 assay; type: functional, cell-based; settings: K562, 48 h
# [37] = system: MKN-45; assay: Antiproliferative activity against human MKN-45 cells assessed as reduction in cell growth incubated for 72 hrs by CCK-8 assay; type: functional, cell-based; settings: MKN-45, 72 h
# [38] = target: T2, Hepatocyte growth factor receptor; assay: Inhibition of human c-Met
# [39] = target: T1, Mushroom tyrosinase; assay: Inhibition of mushroom tyrosinase using L-DOPA as substrate preincubated for 10 mins followed by substrate addition and measured after 15 mins by spectrophotometric method; type: protein assay
# Vascular endothelial growth factor receptor 2, sequence (P35968 whole entry): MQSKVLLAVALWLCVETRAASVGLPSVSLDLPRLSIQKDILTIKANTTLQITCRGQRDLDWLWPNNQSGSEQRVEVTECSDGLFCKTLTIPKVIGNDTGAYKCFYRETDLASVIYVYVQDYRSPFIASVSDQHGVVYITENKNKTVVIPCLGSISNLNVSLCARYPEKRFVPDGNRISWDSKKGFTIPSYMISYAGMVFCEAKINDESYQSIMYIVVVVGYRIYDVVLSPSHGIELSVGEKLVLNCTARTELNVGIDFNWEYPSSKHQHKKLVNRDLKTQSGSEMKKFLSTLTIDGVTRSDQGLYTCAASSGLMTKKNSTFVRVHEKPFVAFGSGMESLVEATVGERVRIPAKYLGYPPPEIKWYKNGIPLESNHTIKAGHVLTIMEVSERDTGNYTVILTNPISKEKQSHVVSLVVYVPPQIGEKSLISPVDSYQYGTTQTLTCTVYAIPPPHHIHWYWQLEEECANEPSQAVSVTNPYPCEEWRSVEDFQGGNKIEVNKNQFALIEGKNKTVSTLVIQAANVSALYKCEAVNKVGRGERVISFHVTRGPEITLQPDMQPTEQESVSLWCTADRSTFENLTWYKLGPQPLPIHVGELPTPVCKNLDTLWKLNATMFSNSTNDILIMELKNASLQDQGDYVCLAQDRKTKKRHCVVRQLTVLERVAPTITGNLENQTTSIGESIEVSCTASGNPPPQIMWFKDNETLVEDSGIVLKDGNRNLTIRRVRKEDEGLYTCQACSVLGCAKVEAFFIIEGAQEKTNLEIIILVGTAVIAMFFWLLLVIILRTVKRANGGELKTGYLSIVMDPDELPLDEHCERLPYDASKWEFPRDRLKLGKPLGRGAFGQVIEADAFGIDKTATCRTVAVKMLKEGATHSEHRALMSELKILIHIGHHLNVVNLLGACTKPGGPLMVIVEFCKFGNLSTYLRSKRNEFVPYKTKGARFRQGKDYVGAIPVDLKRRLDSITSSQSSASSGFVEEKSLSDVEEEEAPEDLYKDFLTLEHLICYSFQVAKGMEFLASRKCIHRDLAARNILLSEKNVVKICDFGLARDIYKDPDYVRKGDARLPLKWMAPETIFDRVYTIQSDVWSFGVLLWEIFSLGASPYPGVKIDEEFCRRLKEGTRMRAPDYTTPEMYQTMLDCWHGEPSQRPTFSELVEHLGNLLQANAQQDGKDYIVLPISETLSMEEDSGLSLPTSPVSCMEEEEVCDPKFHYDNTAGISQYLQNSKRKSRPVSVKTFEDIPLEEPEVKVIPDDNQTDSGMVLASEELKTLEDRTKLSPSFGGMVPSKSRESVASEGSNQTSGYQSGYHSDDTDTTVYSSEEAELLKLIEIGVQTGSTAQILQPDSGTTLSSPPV
# Kinesin-like protein KIF11, sequence (P52732 whole entry): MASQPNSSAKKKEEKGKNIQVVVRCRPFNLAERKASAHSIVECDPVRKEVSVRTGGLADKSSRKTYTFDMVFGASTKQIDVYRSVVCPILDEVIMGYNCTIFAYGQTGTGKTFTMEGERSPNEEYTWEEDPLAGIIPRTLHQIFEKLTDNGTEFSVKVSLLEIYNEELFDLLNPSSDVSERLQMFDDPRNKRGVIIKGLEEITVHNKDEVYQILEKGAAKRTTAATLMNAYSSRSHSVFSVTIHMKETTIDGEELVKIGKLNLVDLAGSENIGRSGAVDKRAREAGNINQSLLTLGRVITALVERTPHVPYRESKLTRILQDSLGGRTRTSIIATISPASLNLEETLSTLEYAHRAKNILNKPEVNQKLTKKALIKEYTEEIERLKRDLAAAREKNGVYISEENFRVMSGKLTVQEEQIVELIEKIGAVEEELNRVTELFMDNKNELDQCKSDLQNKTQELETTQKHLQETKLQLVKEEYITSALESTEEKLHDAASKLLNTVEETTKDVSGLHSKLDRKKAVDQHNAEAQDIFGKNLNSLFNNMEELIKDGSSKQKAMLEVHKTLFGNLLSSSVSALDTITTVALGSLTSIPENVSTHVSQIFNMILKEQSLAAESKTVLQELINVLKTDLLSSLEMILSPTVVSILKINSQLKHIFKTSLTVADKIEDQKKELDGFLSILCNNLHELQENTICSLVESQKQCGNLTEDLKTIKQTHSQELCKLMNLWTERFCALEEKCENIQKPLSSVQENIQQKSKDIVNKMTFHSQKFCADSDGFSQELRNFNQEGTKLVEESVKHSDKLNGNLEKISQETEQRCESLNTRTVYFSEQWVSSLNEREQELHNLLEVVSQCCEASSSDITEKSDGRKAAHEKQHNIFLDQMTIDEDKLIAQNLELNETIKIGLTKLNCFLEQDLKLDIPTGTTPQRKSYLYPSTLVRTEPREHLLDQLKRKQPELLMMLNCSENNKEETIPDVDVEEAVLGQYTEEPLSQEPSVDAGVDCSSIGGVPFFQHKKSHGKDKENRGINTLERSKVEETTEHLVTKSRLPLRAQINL
# T2 sequence (P08581 whole entry): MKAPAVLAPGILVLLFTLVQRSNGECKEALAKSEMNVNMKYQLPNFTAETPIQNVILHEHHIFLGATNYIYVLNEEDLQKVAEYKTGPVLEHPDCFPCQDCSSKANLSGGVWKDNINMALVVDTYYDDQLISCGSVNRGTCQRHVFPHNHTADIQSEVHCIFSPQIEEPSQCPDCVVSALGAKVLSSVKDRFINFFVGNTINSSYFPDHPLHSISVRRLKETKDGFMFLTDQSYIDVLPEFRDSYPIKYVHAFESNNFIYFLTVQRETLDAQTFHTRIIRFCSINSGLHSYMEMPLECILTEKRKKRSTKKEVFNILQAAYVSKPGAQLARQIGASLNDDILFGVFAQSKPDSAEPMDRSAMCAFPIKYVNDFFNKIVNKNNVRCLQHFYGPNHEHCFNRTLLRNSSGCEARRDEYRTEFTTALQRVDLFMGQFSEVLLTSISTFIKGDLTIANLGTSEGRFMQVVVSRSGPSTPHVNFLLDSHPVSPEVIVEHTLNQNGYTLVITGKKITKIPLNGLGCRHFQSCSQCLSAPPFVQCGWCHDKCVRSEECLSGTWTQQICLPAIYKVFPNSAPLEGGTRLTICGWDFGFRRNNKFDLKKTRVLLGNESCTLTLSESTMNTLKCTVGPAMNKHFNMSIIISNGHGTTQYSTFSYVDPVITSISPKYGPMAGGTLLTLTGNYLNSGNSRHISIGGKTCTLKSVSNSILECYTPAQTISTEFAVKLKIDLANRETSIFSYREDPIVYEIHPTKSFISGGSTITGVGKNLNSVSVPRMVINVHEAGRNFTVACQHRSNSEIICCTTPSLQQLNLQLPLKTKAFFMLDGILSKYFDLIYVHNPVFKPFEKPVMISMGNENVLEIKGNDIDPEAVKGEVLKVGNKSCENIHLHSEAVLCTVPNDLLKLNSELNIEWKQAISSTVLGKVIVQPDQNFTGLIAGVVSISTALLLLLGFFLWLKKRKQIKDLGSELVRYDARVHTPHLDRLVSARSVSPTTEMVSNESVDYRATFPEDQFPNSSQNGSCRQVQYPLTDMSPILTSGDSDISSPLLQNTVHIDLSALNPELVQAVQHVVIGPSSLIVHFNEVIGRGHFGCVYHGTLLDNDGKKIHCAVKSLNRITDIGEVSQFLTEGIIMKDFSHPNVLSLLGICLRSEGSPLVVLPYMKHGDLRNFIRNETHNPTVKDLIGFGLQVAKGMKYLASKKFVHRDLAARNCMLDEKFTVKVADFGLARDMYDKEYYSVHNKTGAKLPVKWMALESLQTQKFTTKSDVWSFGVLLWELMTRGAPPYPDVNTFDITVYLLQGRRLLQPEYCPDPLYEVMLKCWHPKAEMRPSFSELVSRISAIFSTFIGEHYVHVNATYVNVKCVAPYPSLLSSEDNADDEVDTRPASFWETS
# DNA topoisomerase 1, sequence (P11387 whole entry): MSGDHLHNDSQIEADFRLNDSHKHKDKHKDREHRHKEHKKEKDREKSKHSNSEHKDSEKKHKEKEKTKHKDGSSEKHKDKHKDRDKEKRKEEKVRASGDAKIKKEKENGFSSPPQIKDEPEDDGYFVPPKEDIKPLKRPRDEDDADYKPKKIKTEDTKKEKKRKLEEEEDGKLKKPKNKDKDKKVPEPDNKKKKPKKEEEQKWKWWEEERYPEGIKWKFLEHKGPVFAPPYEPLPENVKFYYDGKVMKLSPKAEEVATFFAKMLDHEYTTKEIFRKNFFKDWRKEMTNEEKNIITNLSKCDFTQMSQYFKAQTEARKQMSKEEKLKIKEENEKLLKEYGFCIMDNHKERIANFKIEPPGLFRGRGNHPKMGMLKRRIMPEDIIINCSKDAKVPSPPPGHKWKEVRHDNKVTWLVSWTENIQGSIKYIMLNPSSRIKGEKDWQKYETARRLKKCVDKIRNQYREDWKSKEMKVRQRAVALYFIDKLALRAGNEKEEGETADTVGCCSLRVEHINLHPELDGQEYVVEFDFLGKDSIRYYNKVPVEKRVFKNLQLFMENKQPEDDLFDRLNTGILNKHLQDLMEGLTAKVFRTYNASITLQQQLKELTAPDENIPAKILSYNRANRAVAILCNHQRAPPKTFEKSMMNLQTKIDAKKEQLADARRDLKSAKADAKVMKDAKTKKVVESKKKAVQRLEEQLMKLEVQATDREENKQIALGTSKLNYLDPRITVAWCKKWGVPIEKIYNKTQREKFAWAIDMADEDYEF
# Tyrosinase, sequence (P14679 whole entry): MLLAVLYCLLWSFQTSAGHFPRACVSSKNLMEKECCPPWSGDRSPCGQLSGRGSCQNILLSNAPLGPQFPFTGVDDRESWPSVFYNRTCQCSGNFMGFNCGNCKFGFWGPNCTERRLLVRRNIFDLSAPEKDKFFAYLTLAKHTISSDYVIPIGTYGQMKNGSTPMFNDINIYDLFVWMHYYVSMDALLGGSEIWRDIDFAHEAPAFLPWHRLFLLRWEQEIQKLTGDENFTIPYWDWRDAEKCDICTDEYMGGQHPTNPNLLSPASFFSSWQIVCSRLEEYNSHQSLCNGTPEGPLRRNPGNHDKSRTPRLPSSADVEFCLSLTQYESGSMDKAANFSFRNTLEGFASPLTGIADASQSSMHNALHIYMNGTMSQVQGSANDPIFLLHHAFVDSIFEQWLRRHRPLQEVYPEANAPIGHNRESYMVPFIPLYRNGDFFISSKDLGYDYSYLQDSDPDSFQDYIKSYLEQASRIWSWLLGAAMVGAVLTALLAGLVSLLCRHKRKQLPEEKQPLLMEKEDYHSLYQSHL
smiles,measurement,setting,value
NC(=S)N/N=C/c1ccc[nH]1,IC50,[1],3.99 µM
O=C(N/N=C/c1ccc(O)cc1)c1cc2ccccc2[nH]1,IC50,[2],175 µM
same,IC50,[1],0.07 µM
Cc1c(OCC(O)CN2CCN(C)CC2)cn2ncnc(Oc3ccc(NC(=O)C4(C(=O)Nc5ccc(F)cc5)CC4)cc3F)c12 (configuration not stated),IC50,[3],5 µM
O=C(NNC(=S)Nc1ccc(Br)cc1)c1cc2c([nH]c3ccccc32)c(-c2cccc(O)c2)n1,IC50,[4],3.63 µM
same,IC50,[5],3.59 µM
same,IC50,[6],30.2 µM
CSc1nnc(-c2cc3c([nH]c4ccccc43)c(-c3cccc(O)c3)n2)o1,IC50,[4],4.57 µM
same,IC50,[5],6.41 µM
same,IC50,[6],38.2 µM
COc1cccc2c1c(C(=O)C(=O)Nc1cc[nH]n1)cn2Cc1ccc(F)cc1,IC50,[1],372 µM
COc1ccc(OC)c(-c2nc(/C=C3/C(=O)N(Cc4ccccc4)c4ccc(Br)cc43)cc3c2[nH]c2ccccc23)c1,GI50,[7],0.89 µM
same,IC50 at 24 h,[8],49.8 µM
Cc1c(C(=O)Nc2ccc(Oc3ncnc4[nH]ccc34)c(F)c2)nnn1-c1ccc(F)cc1,IC50,[9],0.79 µM
same,IC50,[10],2.03 µM
same,IC50,[11],4.79 µM
same,IC50,[12],2.9 µM
Cc1ccc(NC(=S)NNC(=O)c2cc3c([nH]c4ccccc43)c(-c3cccc(O)c3)n2)cc1,IC50,[13],18.8 µM
same,IC50,[4],2.57 µM
same,IC50,[14],28.1 µM
same,IC50,[5],6.57 µM
same,IC50,[6],16 µM
Cc1cc(C)c(CNC(=O)c2c(C)cn(Cc3ccc(CC(F)(F)F)cc3)c2C)c(=O)[nH]1,IC50,[15],72.8 µM
same,IC50,[16],270 µM
same,IC50,[17],58.7 µM
COc1cccc2c1c(C(C)=O)cn2Cc1ccc(F)cc1,IC50,[1],224 µM
CC(=O)n1cc(C(=O)OC(C)C)c(C#Cc2ccc(Cl)cc2)c1C(=O)OC(C)C,IC50,[18],3.49 µM
same,IC50,[19],2.29 µM
CNC(=S)N/N=C/c1ccc[nH]1,IC50,[1],344.83 µM
CCOCc1cccc(NC(=O)c2cc3sccc3n2C)c1CCOc1ccc(OC[C@@H]2CCNC2)cc1,IC50,[20],0.0078 µM
CNC(=O)c1ccccc1Sc1ccc2c(/N=N/c3cc(C)[nH]c3C)n[nH]c2c1,IC50,[3],44 µM
C=c1[nH]c2ccc(Br)cc2/c1=C/c1cc2c([nH]1)CN(CCN(CC)CC)C2=O,IC50,[21],24.9 µM
Cc1c(C(=O)C(=O)Nc2ccncc2)cc(-c2ccccc2)n1-c1ccccc1,IC50 at 24 h,[22],> 100 µM
same,IC50,[23],11.8 µM
O=C(NCc1ccccc1)C(CNC(=O)C1C(C(=O)O)[C@@H]2CC[C@H]1O2)Cc1ccc[nH]1 (some centres not stated),IC50,[24],0.017 µM
same,IC50,[25],0.017 µM
same,IC50,[26],0.017 µM
same,IC50,[27],0.017 µM
same,IC50,[28],0.017 µM
CC(C)NCc1ccc(-c2[nH]c3cccc4c3c2C=NNC4=O)cc1,IC50,[29],0.00884 µM
same,CC50,[30],0.98 µM
same,IC50,[31],0.014 µM
same,CC50,[32],22.3 µM
CCN1CCC(Oc2ccc(OCCc3ccccc3NC(=O)c3cc4sccc4n3C)cc2)CC1,IC50,[20],0.451 µM
Cc1c(C(=O)C(=O)Nc2ccncc2)cc(-c2ccccc2)n1-c1ccc(F)cc1,IC50 at 24 h,[22],> 100 µM
same,IC50,[33],11.8 µM
S=C(N/N=C/c1ccc[nH]1)Nc1ccccc1,IC50,[1],94.23 µM
COCc1cccc(NC(=O)c2cc3sccc3n2C)c1CCOc1ccc(OC2CCNCC2)cc1,IC50,[20],0.075 µM
O=C(CN1CCCCC1)Nc1cccc(-c2cc3ccccc3[nH]2)c1,IC50,[21],1.14 µM
O=C(N/N=C/c1ccc([N+](=O)[O-])n1Cc1cccc(F)c1)c1cccc(O)c1O,IC50,[34],4.43 µM
same,IC50,[35],0.08 µM
CCNC(=S)NNC(=O)c1cc2c([nH]c3ccccc32)c(-c2cccc(O)c2)n1,IC50,[13],32.3 µM
same,IC50,[4],4.56 µM
same,IC50,[14],28.3 µM
same,IC50,[5],7.2 µM
same,IC50,[6],28.4 µM
Cc1cc(NS(=O)(=O)c2ccc(N3C(=O)/C(=C/c4c[nH]c5ccccc45)N=C3c3ccccc3)cc2)no1,IC50,[21],0.07 µM
Cc1cc(NS(=O)(=O)c2ccc(N3C(=O)/C(=C/c4c[nH]c5ccccc45)N=C3c3ccc(Cl)cc3)cc2)no1,IC50,[21],1.61 µM
Cc1cc(C)c(CNC(=O)c2c(C)n(Cc3ccccc3)c3ccc(OCCN4CCCCC4)cc23)c(=O)[nH]1,IC50,[36],52.6 µM
CNC(=O)c1ccc(-c2ccc3ncc(S(=O)(=O)n4ccc5ccccc54)n3c2)cc1F,IC50,[37],0.0099 µM
same,IC50,[38],0.0128 µM
C=Cc1ccccc1-c1ccn(C)c1C#N,IC50,[39],0.97 µM
